From patent US10568890B2 (Xi'An Libang Pharmaceutical Co., Ltd, priority 2012, dated 2020)
In brackets after ≈: the same amount, converted by molar mass.

Assays:
[1] = test system: advanced breast cancer patients (postmenopausal); details: after treatment failure of first-line non-steroid drugs; cited from earlier work
[2] = Solubility test of fulvestrant in some solvents; assay type: physicochemical; details: 25° C.
Procedure: If it was dissolved completely, the addition of the drug was resumed to reach a saturated state. Nitrogen was introduced, and the vials were kept airtight and free of light for 1-2 days to reach a dissolution-precipitation balance.

[3] = Test of miscibility of formulae in vitro; assay type: physicochemical
Procedure: Ethyl lactate was mixed with ethyl oleate, glycerol triacetate, benzyl benzoate, castor oil, sesame oil, soybean oil, corn oil and olive oil respectively for miscibility, and then the conditions of miscibility were observed. Specifically, 1) adding 0.50 ml of ethyl lactate for each one into eight vials of 7 ml each, and then adding 0.50 ml of ethyl oleate, glycerol triacetate, benzyl benzoate, castor oil, sesame oil, soybean oil, corn oil and olive oil thereto respectively; swirl them for 5 min to be mixed uniformly, followed by standing for 10 min, and then observing and recording the conditions of miscibility of various solvents; 2) adding 0.30 ml of sesame oil, soybean oil, corn oil, olive oil, ethyl oleate, glycerol triacetate and benzyl benzoate respectively into seven vials of 7 ml each; and then adding 0.30 ml of castor oil and 0.30 ml of ethyl lactate thereto; swirl them for 5 min to be mixed uniformly, followed by standing for 10 min; and then observing and recording the conditions of miscibility of various solvents.

Row | SMILES | overall response rate [1] | Solubility ([2]; in benzyl propionate) | Solubility ([2]; in isopentyl acetate) | miscibility of ethyl lactate ([3]; with benzyl benzoate, 0.50 ml each) | miscibility of ethyl lactate ([3]; with castor oil, 0.50 ml each) | miscibility of ethyl lactate ([3]; with corn oil, 0.50 ml each) | miscibility of ethyl lactate ([3]; with ethyl oleate, 0.50 ml each) | miscibility of ethyl lactate ([3]; with glycerol triacetate, 0.50 ml each) | miscibility of ethyl lactate ([3]; with mixed oil 1 (1:1 ethyl oleate and castor oil)) | miscibility of ethyl lactate ([3]; with mixed oil 2 (1:1 benzyl benzoate and castor oil)) | miscibility of ethyl lactate ([3]; with mixed oil 3 (1:1 glycerol triacetate and castor oil)) | miscibility of ethyl lactate ([3]; with mixed oil 4 (1:1 sesame oil and castor oil)) | miscibility of ethyl lactate ([3]; with mixed oil 5 (1:1 corn oil and castor oil)) | miscibility of ethyl lactate ([3]; with mixed oil 6 (1:1 olive oil and castor oil)) | miscibility of ethyl lactate ([3]; with mixed oil 7 (1:1 soybean oil and castor oil)) | miscibility of ethyl lactate ([3]; with olive oil, 0.50 ml each) | miscibility of ethyl lactate ([3]; with sesame oil, 0.50 ml each) | miscibility of ethyl lactate ([3]; with soybean oil, 0.50 ml each)
1 | C=C1C[C@@H]2[C@H](CC[C@]3(C)C(=O)CC[C@@H]23)[C@@]2(C)C=CC(=O)C=C12 [exemestane] | 28% |  |  |  |  |  |  |  |  |  |  |  |  |  |  |  |  | 
2 | C[C@]12CC[C@@H]3c4ccc(O)cc4C[C@@H](CCCCCCCCC[S+]([O-])CCCC(F)(F)C(F)(F)F)[C@H]3[C@@H]1CC[C@@H]2O (stereo partly shown) [fulvestrant] | 37% | 4.34 mg/mL (≈ 7.15 mM) | 50.98 mg/mL (≈ 84 mM) |  |  |  |  |  |  |  |  |  |  |  |  |  |  | 
3 | CCOC(=O)C(C)O (stereo not drawn) [ethyl lactate, ethyl α-hydroxylpropionate] |  |  |  | miscible | miscible | immiscible | miscible | miscible | miscible | miscible | miscible | miscible | miscible | miscible | miscible | immiscible | immiscible | immiscible
